From US20210127671A1, “HYPERSENSITIVE RESPONSE ELICITOR PEPTIDES AND USE THEREOF” (priority 2015, published 2021)
Peptide text beside a SMILES is read from it.

Assay: Stability against chemical degradation in water or pH buffers at 50° C. (HPLC)
Conditions: for % remaining after 14 days incubation: 50 mM TES, pH 8.0, 50° C.; for stability after 14 days: 50 mM EDTA, pH 8 (FIG. 24), 50° C.
Procedure: Briefly, the stability and resistance to chemical degradation of peptides can be assessed as follows using peptide samples having an initial purity of at least about 80%, at least about 82%, at least about 84%, at least about 86%, at least about 88%, at least about 90%, at least about 92%, at least about 94%, at least about 96%, or at least about 98%. For water stability, the peptide is dissolved directly in de-ionized water. For chemical degradation tests, the peptide is dissolved in an aqueous solution containing 50 mM pH buffer and 0.25% Proxel GXL. Exemplary pH buffers include, without limitation: (i) Citrate pH 5.6; (ii) MES pH 6.2; (iii) MOPS pH 6.5; (iv) imidazole pH 7.0; (v) Citrate pH 7.2; (vi) EDDS, pH 7.3; (vii) EDTA pH 8.0; (viii) sodium phosphate pH 8.0; or (ix) TES pH 8.0. Peptides are first dissolved in the aqueous solution at a concentration of 0.5 mg/ml. […] An initial sample of the peptide is removed, diluted 10× with water, and analyzed by reverse-phase HPLC. Briefly, 20 μl of the sample is injected into the solvent flow of an HPLC instrument and analyzed on a C18 HPLC column (YMC ProPack C18, YMC, Japan, or C18 Stablebond, Agilent Technologies, USA) using either a triethylamine phosphate in water/acetonitrile gradient or a 0.1% TFA in water/0.1% TFA in acetonitrile gradient to separate different peptide species. Eluting peptides are monitored by UV absorbance at 218 nm and quantified based on the area under the peak. The area under the peak for the initial peptide sample is treated as the standard for relative quantification in subsequent runs. At regular intervals (e.g., 1, 3, 7, 10, 14, 17, and 21 days), each peptide sample is surveyed and analyzed by HPLC as described above.
Stability against chemical degradation was assessed in various pH buffers by creating 0.2% AI solutions of pure, chemically synthesized peptide in deionized water, 0.25% weight to volume of Proxel® GXL (biocide), and 50 millimolar (mM) of eight buffers (separately) as follows: MES pH 5.6, MOPS pH 6.5, Citrate pH 7.2, EDDS pH 7.3, EDTA pH 8, Phosphate pH 8, Imidazole pH 8, and TES pH 8.

CC[C@H](C)[C@H](NC(=O)CNC(=O)[C@H](CCC(N)=O)NC(=O)[C@@H](N)CC(N)=O)C(=O)N[C@@H](CO)C(=O)N[C@@H](CCC(=O)O)C(=O)N[C@@H](CCCCN)C(=O)N[C@@H](CCC(N)=O)C(=O)N[C@@H](CC(C)C)C(=O)N[C@@H](CC(=O)O)C(=O)N[C@@H](CCC(N)=O)C(=O)N[C@@H](CC(C)C)C(=O)N[C@@H](CC(C)C)C(=O)N[C@H](C(=O)N[C@@H](CCC(N)=O)C(=O)N[C@@H](CC(C)C)C(=O)N[C@H](C(=O)N[C@@H](C)C(=O)N[C@@H](C)C(=O)N[C@@H](CC(C)C)C(=O)N[C@@H](CC(C)C)C(=O)N[C@@H](CCC(N)=O)C(=O)N[C@@H](CCC(N)=O)C(=O)O)[C@@H](C)CC)[C@@H](C)O [Peptide P1-18A] (H-NQGISEKQLDQLLTQLIAALLQQ-OH; N-terminus and C-terminus assumed)
% remaining after 14 days incubation: 47%

CC[C@H](C)[C@H](NC(=O)CNC(=O)[C@H](CCC(N)=O)NC(=O)[C@@H](N)CC(N)=O)C(=O)N[C@@H](CO)C(=O)N[C@@H](CCC(=O)O)C(=O)N[C@@H](CCCCN)C(=O)N[C@@H](CCC(N)=O)C(=O)N[C@@H](CC(C)C)C(=O)N[C@@H](CC(=O)O)C(=O)N[C@@H](CCC(N)=O)C(=O)N[C@@H](CC(C)C)C(=O)N[C@@H](CC(C)C)C(=O)N[C@H](C(=O)N[C@@H](CCC(N)=O)C(=O)N[C@@H](CC(C)C)C(=O)N[C@H](C(=O)N[C@H](C(=O)N[C@@H](C)C(=O)N[C@@H](CC(C)C)C(=O)N[C@@H](CC(C)C)C(=O)N[C@@H](CCC(N)=O)C(=O)N[C@@H](CCC(N)=O)C(=O)O)[C@@H](C)O)[C@@H](C)CC)[C@@H](C)O [Peptide P1-18T] (H-NQGISEKQLDQLLTQLITALLQQ-OH; N-terminus and C-terminus assumed)
% remaining after 14 days incubation: 71%

CC[C@H](C)[C@H](NC(=O)[C@@H](NC(=O)[C@H](CCC(N)=O)NC(=O)[C@H](CCCNC(=N)N)NC(=O)[C@H](CC(=O)O)NC(=O)[C@@H](NC(=O)[C@@H]1CCCN1C(=O)[C@H](CCC(N)=O)NC(=O)[C@@H](N)CCC(N)=O)[C@@H](C)CC)[C@@H](C)O)C(=O)N[C@@H](CCC(=O)O)C(=O)N[C@@H](CCC(N)=O)C(=O)N[C@@H](CCSC)C(=O)N[C@@H](C)C(=O)N[C@@H](CCC(N)=O)C(=O)N[C@@H](CC(C)C)C(=O)N[C@@H](CC(C)C)C(=O)N[C@@H](C)C(=O)N[C@@H](CCC(N)=O)C(=O)N[C@@H](CC(C)C)C(=O)N[C@@H](CC(C)C)C(=O)N[C@@H](CCCCN)C(=O)N[C@@H](CO)C(=O)N[C@@H](CC(C)C)C(=O)N[C@@H](CC(C)C)C(=O)O [Peptide P18-1] (H-QQPIDRQTIEQMAQLLAQLLKSLL-OH)
stability after 14 days: > 90%

CC[C@H](C)[C@H](NC(=O)[C@@H](NC(=O)[C@H](CCC(N)=O)NC(=O)[C@H](CCCNC(=N)N)NC(=O)[C@@H](N)CC(=O)O)[C@@H](C)O)C(=O)N[C@@H](CCC(=O)O)C(=O)N[C@@H](CCC(N)=O)C(=O)N[C@@H](CC(C)C)C(=O)N[C@@H](C)C(=O)N[C@@H](CCC(N)=O)C(=O)N[C@@H](CC(C)C)C(=O)N[C@@H](CC(C)C)C(=O)N[C@@H](C)C(=O)N[C@@H](CCC(N)=O)C(=O)N[C@@H](CC(C)C)C(=O)N[C@@H](CC(C)C)C(=O)N[C@@H](CCCCN)C(=O)N[C@@H](CO)C(=O)N[C@@H](CC(C)C)C(=O)N[C@@H](CC(C)C)C(=O)N[C@@H](CO)C(=O)N1CCC[C@H]1C(=O)O [Peptide P18-4] (H-DRQTIEQLAQLLAQLLKSLLSP-OH)
stability after 14 days: 60%
